{"source": "patent US20160038468A1", "about": "(priority 2013, published 2016)", "format_in_all_cases": "cell-based", "key": {"Atopobium vaginae": {"test_system": "Atopobium vaginae", "assay": "Agar dilution MIC (CLSI), Atopobium vaginae vaginal isolates", "conditions": "for Number of strains with indicated MIC: 62 samples"}, "Mobiluncus all species": {"test_system": "Mobiluncus all species", "assay": "Agar dilution MIC (CLSI), Mobiluncus all species", "conditions": "# tested 40"}, "Prevotella bivia": {"test_system": "Prevotella bivia", "assay": "Agar dilution MIC (CLSI), Prevotella bivia vaginal isolates", "conditions": "for Number of strains with indicated MIC: 34 samples; for MIC: read-out: Minimal Inhibitory Concentration (MIC)"}, "Anaerococcus tetradius": {"test_system": "Anaerococcus tetradius", "assay": "Agar dilution MIC (CLSI), Anaerococcus tetradius vaginal isolates", "conditions": "Anaerococcus tetradius, read-out: Minimal Inhibitory Concentration (MIC)"}, "[1]": {"conditions": "Fannyhessea vaginae, # tested 62"}}, "note": "Like-named read-outs stand apart in the source and are kept apart here.", "data": [{"smiles": "CCC[C@@H]1C[C@@H](C(=O)N[C@@H]([C@H]2O[C@H](SC)[C@H](O)[C@@H](O)[C@H]2O)[C@H](C)Cl)N(C)C1", "note": "[Clindamycin]", "values": [{"measurement": "MIC", "setting": "Atopobium vaginae; Fannyhessea vaginae, read-out: Minimal Inhibitory Concentration (MIC)", "result": "> 128", "unit": "µg/mL"}, {"measurement": "MIC50", "setting": "Atopobium vaginae; [1]", "result": 0.06, "unit": "µg/mL"}, {"measurement": "MIC90", "setting": "Atopobium vaginae; [1]", "result": 0.25, "unit": "µg/mL"}, {"measurement": "Number of strains with indicated MIC", "setting": "Atopobium vaginae; MIC 0.03 μg/ml", "result": 28}, {"measurement": "Number of strains with indicated MIC", "setting": "Atopobium vaginae; MIC 0.06 μg/ml", "result": 10}, {"measurement": "Number of strains with indicated MIC", "setting": "Atopobium vaginae; MIC 8 μg/ml", "result": 1}, {"measurement": "Number of strains with indicated MIC", "setting": "Atopobium vaginae; MIC 16 μg/ml", "result": 1}, {"measurement": "Number of strains with indicated MIC", "setting": "Atopobium vaginae; MIC >[…]", "result": 1}, {"measurement": "Number of strains with indicated MIC", "setting": "Atopobium vaginae; MIC […] μg/ml", "result": 1}, {"measurement": "MIC50", "setting": "Mobiluncus all species", "result": 0.125, "unit": "µg/mL"}, {"measurement": "MIC90", "setting": "Mobiluncus all species", "result": 0.25, "unit": "µg/mL"}, {"measurement": "Susceptible", "setting": "Mobiluncus all species; number (%) of isolates", "result": "38 (95) μg/ml"}, {"measurement": "Resistant", "setting": "Mobiluncus all species; number (%) of isolates, resistance: rifaximin >32, metronidazole >32, clindamycin >8 μg/ml", "result": "2 (5) μg/ml"}, {"measurement": "Number of strains with indicated MIC", "setting": "Prevotella bivia; MIC 0.03 μg/ml", "result": 8}, {"measurement": "Number of strains with indicated MIC", "setting": "Prevotella bivia; MIC 0.06 μg/ml", "result": 1}, {"measurement": "Number of strains with indicated MIC", "setting": "Prevotella bivia; MIC >[…]", "result": 25}, {"measurement": "MIC", "setting": "Prevotella bivia; Prevotella bivia, isolate 601203 5", "result": 0.03, "unit": "µg/mL"}, {"measurement": "MIC", "setting": "Prevotella bivia; Prevotella bivia, isolate 601212 9", "result": 0.03, "unit": "µg/mL"}, {"measurement": "MIC", "setting": "Prevotella bivia; Prevotella bivia, isolate 601293 22", "result": 0.03, "unit": "µg/mL"}, {"measurement": "MIC", "setting": "Prevotella bivia; Prevotella bivia, isolate 601355 B", "result": 0.06, "unit": "µg/mL"}, {"measurement": "MIC", "setting": "Prevotella bivia; Prevotella bivia, isolate 601367 M", "result": 0.03, "unit": "µg/mL"}, {"measurement": "MIC", "setting": "Prevotella bivia; Prevotella bivia, isolate 601388 T", "result": 0.03, "unit": "µg/mL"}, {"measurement": "MIC", "setting": "Prevotella bivia; Prevotella bivia, isolate 601389 J", "result": 0.03, "unit": "µg/mL"}, {"measurement": "MIC", "setting": "Prevotella bivia; Prevotella bivia, isolate 601409 V", "result": 0.03, "unit": "µg/mL"}, {"measurement": "MIC", "setting": "Prevotella bivia; Prevotella bivia, isolate 601410 12", "result": 0.03, "unit": "µg/mL"}, {"measurement": "MIC", "setting": "Prevotella bivia; Prevotella bivia", "result": "> 128", "unit": "µg/mL"}, {"measurement": "MIC50", "setting": "Prevotella bivia; Prevotella bivia, # tested 34", "result": "> 128", "unit": "µg/mL"}, {"measurement": "MIC90", "setting": "Prevotella bivia; Prevotella bivia, # tested 34", "result": "> 128", "unit": "µg/mL"}, {"measurement": "Minimal Inhibitory Concentration (MIC)", "setting": "Prevotella bivia; isolate 601096 25", "result": ">128", "unit": "µg/mL"}, {"measurement": "Minimal Inhibitory Concentration (MIC)", "setting": "Prevotella bivia; isolate 601166 M", "result": ">128", "unit": "µg/mL"}, {"measurement": "Minimal Inhibitory Concentration (MIC)", "setting": "Prevotella bivia; isolate 601202 21", "result": ">128", "unit": "µg/mL"}, {"measurement": "Minimal Inhibitory Concentration (MIC)", "setting": "Prevotella bivia; isolate 601213 9A", "result": ">128", "unit": "µg/mL"}, {"measurement": "Minimal Inhibitory Concentration (MIC)", "setting": "Prevotella bivia; isolate 601214 B", "result": ">128", "unit": "µg/mL"}, {"measurement": "Minimal Inhibitory Concentration (MIC)", "setting": "Prevotella bivia; isolate 601241 13", "result": ">128", "unit": "µg/mL"}, {"measurement": "Minimal Inhibitory Concentration (MIC)", "setting": "Prevotella bivia; isolate 601243 15", "result": ">128", "unit": "µg/mL"}, {"measurement": "Minimal Inhibitory Concentration (MIC)", "setting": "Prevotella bivia; isolate 601255 10", "result": ">128", "unit": "µg/mL"}, {"measurement": "Minimal Inhibitory Concentration (MIC)", "setting": "Prevotella bivia; isolate 601261 C", "result": ">128", "unit": "µg/mL"}, {"measurement": "Minimal Inhibitory Concentration (MIC)", "setting": "Prevotella bivia; isolate 601283 20", "result": ">128", "unit": "µg/mL"}, {"measurement": "Minimal Inhibitory Concentration (MIC)", "setting": "Prevotella bivia; isolate 601285 14", "result": ">128", "unit": "µg/mL"}, {"measurement": "Minimal Inhibitory Concentration (MIC)", "setting": "Prevotella bivia; isolate 601305 H", "result": ">128", "unit": "µg/mL"}, {"measurement": "Minimal Inhibitory Concentration (MIC)", "setting": "Prevotella bivia; isolate 601340 31", "result": ">128", "unit": "µg/mL"}, {"measurement": "Minimal Inhibitory Concentration (MIC)", "setting": "Prevotella bivia; isolate 601374 A1", "result": ">128", "unit": "µg/mL"}, {"measurement": "Minimal Inhibitory Concentration (MIC)", "setting": "Prevotella bivia; isolate 601378 B", "result": ">128", "unit": "µg/mL"}, {"measurement": "Minimal Inhibitory Concentration (MIC)", "setting": "Prevotella bivia; isolate 601379 19", "result": ">128", "unit": "µg/mL"}, {"measurement": "Minimal Inhibitory Concentration (MIC)", "setting": "Prevotella bivia; isolate 601389 10", "result": ">128", "unit": "µg/mL"}, {"measurement": "Minimal Inhibitory Concentration (MIC)", "setting": "Prevotella bivia; isolate 601392 14", "result": ">128", "unit": "µg/mL"}, {"measurement": "Minimal Inhibitory Concentration (MIC)", "setting": "Prevotella bivia; isolate 601429 1", "result": ">128", "unit": "µg/mL"}, {"measurement": "Minimal Inhibitory Concentration (MIC)", "setting": "Prevotella bivia; isolate 601433 19", "result": ">128", "unit": "µg/mL"}, {"measurement": "Minimal Inhibitory Concentration (MIC)", "setting": "Prevotella bivia; isolate 601449 E", "result": ">128", "unit": "µg/mL"}, {"measurement": "Minimal Inhibitory Concentration (MIC)", "setting": "Prevotella bivia; isolate 601453 A", "result": ">128", "unit": "µg/mL"}, {"measurement": "Minimal Inhibitory Concentration (MIC)", "setting": "Prevotella bivia; isolate 601455 D1", "result": ">128", "unit": "µg/mL"}, {"measurement": "Minimal Inhibitory Concentration (MIC)", "setting": "Prevotella bivia; isolate 601458 16", "result": ">128", "unit": "µg/mL"}, {"measurement": "Susceptible", "setting": "Prevotella bivia; number (%) of isolates, # tested 34", "result": "9 (26) μg/ml"}, {"measurement": "Resistant", "setting": "Prevotella bivia; number (%) of isolates, # tested 34, resistance: rifaximin >32, metronidazole >32, clindamycin >8 μg/ml", "result": "25 (74) μg/ml"}, {"measurement": "MIC", "setting": "Anaerococcus tetradius; isolate 601098V T", "result": 2, "unit": "µg/mL"}, {"measurement": "MIC", "setting": "Anaerococcus tetradius; isolate 601103V 21", "result": 2, "unit": "µg/mL"}, {"measurement": "MIC", "setting": "Anaerococcus tetradius; isolate 601175V I", "result": 1, "unit": "µg/mL"}, {"measurement": "MIC", "setting": "Anaerococcus tetradius; isolate 601202V 11", "result": 2, "unit": "µg/mL"}, {"measurement": "MIC", "setting": "Anaerococcus tetradius; isolate 601212V 14", "result": 2, "unit": "µg/mL"}, {"measurement": "MIC", "setting": "Anaerococcus tetradius; isolate 601221V 12", "result": 0.03, "unit": "µg/mL"}, {"measurement": "MIC", "setting": "Anaerococcus tetradius; isolate 601222V 15", "result": 0.25, "unit": "µg/mL"}, {"measurement": "MIC", "setting": "Anaerococcus tetradius; isolate 601242V 17", "result": 4, "unit": "µg/mL"}, {"measurement": "MIC", "setting": "Anaerococcus tetradius; isolate 601256V 9", "result": 2, "unit": "µg/mL"}, {"measurement": "MIC", "setting": "Anaerococcus tetradius; isolate 601305V J", "result": 2, "unit": "µg/mL"}, {"measurement": "MIC", "setting": "Anaerococcus tetradius; isolate 601326V H", "result": 2, "unit": "µg/mL"}, {"measurement": "MIC", "setting": "Anaerococcus tetradius; isolate 601340V 25", "result": 2, "unit": "µg/mL"}, {"measurement": "MIC", "setting": "Anaerococcus tetradius; isolate 601342V N", "result": 2, "unit": "µg/mL"}, {"measurement": "MIC", "setting": "Anaerococcus tetradius; isolate 601368V 42", "result": 2, "unit": "µg/mL"}]}]}
